Measured values taken from US20110173718A1, “HERBICIDE TOLERANT PLANTS” (SYNGENTA CROP PROTECTION, INC., priority 2008, published 2011).

Key:
[1] = biological target: T1, Chlamydomonas HST (Chlamydomonas reinhardtii, UniProt A1JHN0); assay: HST assay (TLC, MFBQ formed), recombinant Chlamydomonas HST in E. coli membranes; type: biochemical; conditions: TLC, estimated amount of MFBQ formed, relative to controls
T1 construct: GST (N); made in house; host or cells: E. coli (BL21A1 / BL21DE3), membrane fraction
T1 sequence (A1JHN0 51-370): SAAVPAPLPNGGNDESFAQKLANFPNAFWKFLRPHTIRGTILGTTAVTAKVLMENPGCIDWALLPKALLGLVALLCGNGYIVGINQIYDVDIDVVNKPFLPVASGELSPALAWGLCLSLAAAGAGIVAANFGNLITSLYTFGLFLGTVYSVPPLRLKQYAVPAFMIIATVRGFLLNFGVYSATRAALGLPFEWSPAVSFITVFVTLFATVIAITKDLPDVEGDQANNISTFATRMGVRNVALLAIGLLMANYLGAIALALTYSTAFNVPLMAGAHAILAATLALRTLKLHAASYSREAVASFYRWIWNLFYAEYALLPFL
Method: Alternatively, Arabidopsis and Chlamydomonas mature HST coding sequences are cloned as GST N-terminal fusion enzymes and expressed in E. coli.
E. coli. BL21A1 cells expressing mature Arabidopsis or Chlamydonionas HST as a GST N-terminal fusion proteins are grown, harvested, broken and membrane fractions expressing HST produced.
For example, 1 ng of recombinant DNA is used to transform BL21DE3 cells to obtain a plateful of individual colonies. One of these colonies is picked and used to inoculate an overnight culture of 100 ml of Luria Broth (LB) supplemented with 50 ug/ml of kanamycin at final concentration, grown at 37° C. with shaking at 220 rpm. Next morning, 10 mls of the overnight culture is used to inoculate 11 of fresh sterile LB supplemented with 50 ug/ml of kanamycin at final concentration, grown at 37° C. with shaking at 220 rpm until the OD reached 0.6 at 600 nm, induced with the addition of 0.1 mM IPTG and left to induce at 15° C. overnight. The cells are harvested by centrifugation at 4600 rpm for 10 min at 4° C. and the pellet stored at −80° C. […] E. coli cell pellet is then resuspended in 25 ml of 50 mM Tris, pH 7.5 supplemented with Roche EDTA-free protease inhibitor tablet (one tablet in 200 mls of buffer). 10 ml of cells are lysed by sonication on ice. The resultant lysed cells are centrifuged at 3000 g for 10 min to pellet the cell nuclei/debris etc. 10 mls of supernatant is aspirated and centrifuged at 150,000 g for 60 min at 4° C. The pellet containing the membranes is resuspended in 2 ml of the above buffer. These samples are stored as 100 ul aliquots at −80° C., after being diluted with addition of glycerol to 50% v/v.
Prenyltransferase (HST) activities are measured by determining the prenylation rates of [U—^14C]homogentisate using farnesyl diphosphate (FDP) as prenyl donor. ^14C homogentisate is prepared from ^14C tyrosine using L amino acid oxidase and HPPD. For inhibitor testing, compounds are dissolved in dimethylsulfoxide (DMSO). DMSO added at up to 2% v/v has no effect on assays. Control assays contain DMSO at the same concentration as in inhibitor containing assays.
The recombinant Chlamydomonas HST expressed in E. coli membranes is assayed in standard reaction mixtures with 200 μM FDP and 100 μM ^14C-homogentisate (40 dpm/pmol) in 50 mM Tricine-NaOH pH 8.5, 20 mM MgCl2. Assays are started with the addition of enzyme and run for ˜20 min at 28° C.
Recombinant Arabidopsis and Rice HSTs are expressed in insect cells. Assays are run as for Chlamydomonas HST except that assay temperature is 27° C. Assays are stopped with 300 ul of solvent mix (1:2, Chloroform:Methanol) and 100 ul of 0.5% NaCl, agitated/mixed and spun at 13,000 rpm in a benchtop eppendorf centrifuge for 5 minutes. 80 ul of the lower phase extract is loaded onto a TLC plate (silica Gel 60, 20 cm×20 cm) FLA3000 system and run for 35 minutes in dichloromethane. The radioactivity is quantified using a Fuji Phosphoimager and band intensity integrated as quantitative measure of product amount. The bands corresponding to oxidised and reduced 2-methyl-6-farnesyl-1,4-benzoquinol (MFBQ) are identified and the total of the two (oxidised and reduced) band intensities is calculated in order to estimate the total amount of MFBQ product formation. Specific activities of 8 pmol MFBQ min^−1 mg^−1 protein (23 pmol) and 7 pmol MFBQ min^−1 mg^−1 protein (14 pmol) are, for example, estimated for the GST-fusion truncated Arabidopsis HST gene (SEQ ID # 3) expressed in membranes from insect cells 4 days and 5 days after transfection respectively. Similar results are noted from past literature on E. coli expressed Arabidopsis HST. Activity from the insect cell expressed GST-fusion truncated rice HST (SEQ ID# 4) is similar. Expression of the non-truncated HST coding sequences as GST fusions also gives HST activity. […]

[2] = test system: wild-type (WT) Samsun tobacco; assay: Glasshouse spray test, wild-type tobacco; type: in vivo; conditions: 500 g/ha; 14 DAT; WT control, reps
Method: Rooted transgenic T0 plantlets are transferred from agar and potted into 50% peat, 50% John Innes soil no 3 or, for example, MetroMix® 380 soil (Sun Gro Horticulture, Bellevue, Wash.) with slow-release fertilizer in 3 inch round or 4 inch square pots and left regularly watered to establish for 8-12 d in the glass house. Glass house conditions are about 24-27° C. day; 18-21° C. night and approximately a 14 h (or longer in UK summer) photoperiod. Humidity is ˜65% and light levels up to 2000 μmol/m^2 at bench level. Once new tissue emerges and plants they have reached the 2-4 leaf stage some of the clones from each event are sprayed with test chemicals dissolved in water with 0.2-0.25% X-77 surfactant and sprayed from a boom on a suitable track sprayer moving at 2 mph in a DeVries spray chamber with the nozzle about 2 inches from the plant tops. Spray volume is suitably 25 gallons per acre or, for example, […].
Test chemicals are, for example, compound 2.3 at 500 g/ha. At the same time that transgenic plants are sprayed so too are w/t Samsun tobacco plants grown from seed as well as non-transgenic plants regenerated from tissue culture and non-transgenic tissue culture escapes. Damage is assessed versus unsprayed control plants of like size and development.
6 Seed from w/t Samsun tobacco and 8 T1 seed from events B8 and G9 are also planted out in 3 inch pots, grown on for 7 to 12 d and then, as described in the foregoing examples, the plantlets spray tested for resistance to various chemicals and assessed at 14 DAT. Chemicals are formulated in 0.2% X77 and sprayed at a spray volume of 200 l/ha.
Seed of wild-type tobacco plants, C2 tobacco plants and of the T1 progeny of a further Arabidopsis-HST expressing tobacco line, D2 were planted out in 3 inch pots, grown on, sprayed with compounds 1.1, 2.30 and 3.6 at the rates shown in table 5. Percent damage scores were assessed at 7 DAT. Aside from the presumptive non-transgenic segregants the D2 line containing the Arabidopis HST expression construct offered the highest level of tolerance to the two HST herbicides with the Psuedomonas HPPD, C2 line, offering only marginal tolerance under the conditions of this test.
Single copy events amongst the T1 plant lines are identified by their 3:1 segregation ratio (wrt kanamycin and or herbicide) and by quantitative RT-PCR. Seed from the thus selected T1 tobacco (var Samsun) lines are sown in 3 inch diameter pots containing 50% peat, 50% John Innes soil no 3. After growth to the 3 leaf stage, plants are sprayed, as described above, in order to test for herbicide tolerance relative to like-treated non-transgenic tobacco plants.
Control tobacco plants and transgenic T1 plants expressing either the Pseudomonas or the wheat HPPD gene are sprayed at 37, 111, 333 and 1000 g/ha rates of HST inhibitors and, for example, compound 2.3.
Plants are assessed and scored for % damage at 16 DAT.

[3] = test system: Arabidopsis HST transgenic tobacco plants; assay: Glasshouse spray test, Arabidopsis HST transgenic tobacco; type: in vivo; conditions: 500 g/ha, 14 DAT
Excerpt: For example the Arabidopsis HST SEQ ID # 11 is cloned behind a double 35s CMV promoter sequence and a TMV translational enhancer sequence and in front of the 3′ terminator from the nos gene. This expression cassette is ligated into pMJB1 (described in WO98/20144) and then into pBIN19 and then transformed into Agrobacterium tuniqfaciens strains LBA4404 prior to plant transformation.
For example, the full length Arabidopsis HST seq ID # 11 is fused to the TMV translational enhancer sequence (SEQ ID #33) by overlapping PCR and, at the same time, 5′ XhoI site and a 3′KpnI site are added by PCR. Site-directed mutagenesis is performed to remove an internal XhoI site. The TMV/HPPD fusion is removed from the pBIN19 by digestion with XhoI/KpnI and is replaced by the TMV/HST fusion (SEQ ID #34). The TMV/HST fusion is now cloned behind a double 35s promoter and in front of the 3′ terminator from the nos gene. Again the modified pBIN19 vector (‘pBinAT HST’) is then transformed into Agrobacterium tumefaciens strain LBA4404.
A master plate of Agrobacterium tumefaciens containing the binary vector pBinAT HST (described above) or analogous binary vector comprising a different HST is used to inoculate 10 ml LB containing 100 mg/1 Rifampicin plus 50 mg/1 Kanamycin using a single bacterial colony. This is incubated overnight at 28° C. shaking at 200 rpm. This entire overnight culture is used to inoculate a 50 ml volume of LA (plus antibiotics). Again this is cultured overnight at 28° C. shaking at 200 rpm. The Agrobacterium cells are pelleted by centrifuging at 3000 rpm for 15 minutes then resuspended in MS medium with 30 g/1 sucrose, pH 5.9 to an OD ([…])=0.6. This suspension is dispensed in 25 ml aliquots into petri dishes.
Clonal micro-propagated tobacco shoot cultures are used to excise young (not yet fully expanded) leaves. The mid rib and outer leaf margins are removed and discarded, the remaining lamina is cut into 1 cm squares. These are transferred to the Agrobacterium suspension for 20 minutes. Explants are then removed, dabbed on sterile filter paper to remove excess suspension then transferred to NBM medium (MS medium, 30 g/1 sucrose, 1 mg/1 BAP, 0.1 mg/1 NAA, pH 5.9, solidified with 8 g/1 Plantagar), with the abaxial surface of each explant in contact with the medium. Approximately 7 explants are transferred per plate, which are then sealed then maintained in a lit incubator at 25° C., 16 hour photoperiod for 3 days.
Explants are then transferred to NBM medium containing 100 mg/1 Kanamycin plus antibiotics to prevent further growth of Agrobacterium (200 mg/1 timentin with 250 mg/1 carbenicillin). Further subculture on to this same medium is then performed every 2 weeks.
As shoots start to regenerate from the callusing leaf explants these are removed to Shoot elongation medium (MS medium, 30 g/1 sucrose, 8 g/1 Plantagar, 100 mg/1 Kanamycin, 200 mg/1 timentin, 250 mg/1 carbenicillin, pH 5.9). Stable transgenic plants readily root within 2 weeks. To provide multiple plants per event to ultimately allow more than one herbicide test per transgenic plant all rooting shoots are micropropagated to generate 3 or more rooted clones.
Putative transgenic plants that are rooting and show vigorous shoot growth on the medium incorporating Kanamycin are analysed by PCR using primers that amplified a 500 bp fragment within the Arabidopsis HST transgene.
Rooted transgenic T0 plantlets are transferred from agar and potted into 50% peat, 50% John Innes soil no 3 or, for example, MetroMix® 380 soil (Sun Gro Horticulture, Bellevue, Wash.) with slow-release fertilizer in 3 inch round or 4 inch square pots and left regularly watered to establish for 8-12 d in the glass house. Glass house conditions are about 24-27° C. day; 18-21° C. night and approximately a 14 h (or longer in UK summer) photoperiod. Humidity is ˜65% and light levels up to 2000 μmol/m^2 at bench level. […]

Row | SMILES | Chlamydomonas. HST % I at 10 ppm [1] [%] | Chlamydomonas. HST % I at 100 ppm [1] [%] | herbicide % damage [2] [%] | herbicide % damage ([3]; T1 progeny of line B8, reps) [%] | herbicide % damage ([3]; T1 progeny of line G9-2, reps) [%]
1 | O=c1[nH]c2nccnc2c(O)c1-c1c(F)ccc(F)c1Cl [Compound 2.7] | 5 | 20 |  |  | 
2 | CCNc1nc(Cl)nc(NC(C)C)n1 [Atrazine, reference compound] |  |  | 100 | 100 | 100
3 | Cc1cc(C)c(-c2c(O)c3nccnc3n(C)c2=O)c(C)c1 [Compound 2.2] | 70 | 95 |  |  | 
4 | O=c1[nH]c2nccnc2c(O)c1-c1c(F)ccc(Br)c1Cl [Compound 2.1] | 10 | 40 |  |  | 
5 | Nc1nc[nH]n1 [Amitrole, reference compound] | 0 | 0 |  |  | 
6 | O=c1[nH]c2nccnc2c(O)c1-c1ccccc1OC(F)(F)F [Compound 2.6] | 5 | 20 |  |  | 
7 | CN1CC(c2c(F)ccc(F)c2Cl)=C(O)c2ncccc21 [Compound 4.1] | 0 | 0 |  |  | 
